Structures are written as SMILES. pIC50: −log10 of the molar value.

One may read the pIC50 as the IC50 on a negative log10 scale, so that one unit is a factor of ten.

The subject of one data set is SK-OV-3 cells. The data set can be described thus: Effect of compounds on tryptophan catabolism in SK-OV-3 cell line (inhibition of kynurenine production, LC-MS/MS). The note with it: for pIC50: Homo sapiens, SK-OV-3, 24 h, SK-OV-3 cell line, 24 h incubation, kynurenine in supernatant by LC-MS/MS, read-out: IC50 Ranges (ic50 values for inhibition of Kynurenine production). In kind it is cell-based. In short, it runs like this:
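Cells seeded overnight in McCoy's 5A/10% FBS, then switched to DMEM F-12 with 6 mg/mL L-tryptophan; compounds added at 8 3-fold dilutions from 30 μM, in duplicate, 24 h at 37 °C. Supernatant kynurenine measured by LC-MS/MS; ATP-based viability run in parallel; IC50 from % inhibition of Kyn production.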

The target of another data set is T1, IDO1 enzyme (Homo sapiens, UniProt P14902).
T1 construct: purchased Netherlands Translational Research Center B.V. NTRC-hIDO-1K
Briefly: IDO1 enzyme inhibition assay (hIDO assay kit, NFK-green). Particulars: IDO1 enzyme 25 nM, tryptophan 100 μM, top concentration 30 μM; read-out: IDO1 Biochemical assay IC50. The protocol: The effect of compounds on IDO1 enzymatic activity was assessed by use of a hIDO assay kit (Netherlands Translational Research Center B.V., Cat #NTRC-hIDO-1K). IDO1 enzyme and tryptophan substrate are diluted in assay buffer. Compounds are tested at 8 consecutive 3-fold dilutions starting from 30 μM. 267 nL of compound is added per well of a 384-well plate followed by addition of 10 μL of assay buffer. IDO1 enzyme is added at a final concentration of 25 nM and pre-incubated for 30 min at room temperature in the dark. Tryptophan substrate solution is then added at final concentration of 100 μM to all wells and the plate incubated for 60 min at RT in the dark. Finally NFK-green reagent is added at ⅕ of total reaction volume and incubated for 4 h at RT in the dark. After incubation fluorescence is measured at Ex405 nm-Em535 nm using EnVision plate reader.
(§1) IC50 values are determined using GraphPad Prism software 5.04 for Windows by plotting percent of inhibition against log 10 concentrations of compounds using a four-parametric sigmoidal curve with a variable slope.

For a further data set, the target named is T2, TDO2 enzyme (Homo sapiens, UniProt P48775).
T2 construct: purchased Netherlands Translational Research Center B.V. NTRC-hTDO-1K
Briefly: TDO2 enzyme inhibition assay (hTDO2 assay kit, NFK-green). Particulars: TDO2 enzyme 50 nM, tryptophan 200 μM, top concentration 30 μM; read-out: TDO2 Biochemical assay IC50. As to the method:
The effect of compounds on TDO2 enzymatic activity was assess by use of an hTDO2 assay kit (Netherlands Translational Research Center B.V., Cat #NTRC-hTDO-1K). TDO2 enzyme and tryptophan substrate are diluted in assay buffer. Compounds are tested at 8 consecutive 3-fold dilutions starting from 30 μM. 267 nL of compound is added per well of a 384-well plate followed by addition of 10 μL of assay buffer. TDO2 enzyme is added at a final concentration of 50 nM and pre-incubated for 60 min at room temperature in the dark. Tryptophan substrate solution is then added at final concentration of 200 μM to all wells and the plate incubated for 15 min at RT in the dark. Finally NFK-green reagent is added at ⅕ of total reaction volume and incubated for 4 h at RT in the dark. After incubation fluorescence is measured at Ex405 nm-Em535 nm using EnVision plate reader.
as §1

Data set [1] deals with monocyte-derived dendritic cells. The data set can be described thus: Effect of compounds on tryptophan catabolism in monocyte-derived dendritic cells (kynurenine production). Type of data set: cell-based. Particulars: Homo sapiens, Dendritic cell; dendritic cells triggered with LPS and IFNγ, 24 h with compound. The protocol:
(§2) Peripheral blood mononuclear cells are isolated from buffy coats from healthy volunteers by Lymphoprep density gradient centrifugation, followed by lysis of residual erythrocytes with isotonic buffer solution of ammonium chloride. CD14+ cells are isolated by positive selection using MACS® technology and CD14 MicroBeads (Miltenyi Biotec) according to manufacturer's instructions. The isolated monocytes are differentiated into dendritic cells by incubation for 5 days in RPMI-1640 medium supplemented with 10% fetal bovine serum (FBS), 50 ng/mL GM-CSF and 35 ng/mL IL-4. After 5 days the DCs are seeded in 96-well plates in DMEM supplemented with 10% charcoal stripped FBS, GM-CSF and IL-4. The following day cells are triggered with LPS and IFNγ. After 24 h of incubation medium is replaced with DMEM F-12 medium supplemented with 6 mg/mL L-tryptophan and 10% charcoal stripped FBS. Compounds are added to the cells and incubated for 24 h at 37° C., 5% CO2, 95% humidity. Compounds are tested at 7 consecutive 4-fold dilutions starting from 30 μM in duplicate.
(§3) At the end of incubation concentration of kynurenine in cell supernatants is determined by LC-MS/MS. In parallel, cell viability is assessed by measurement of ATP by use of CellTiter Glo assay (Promega) according to manufacturer's protocol.
Inhibition of Kyn production is calculated using the following formula:
(1−(Kyn conc. cmpd.−Kyn conc. medium)/(Kyn conc. medium with cells−Kyn conc. medium))·100
IC50 values are determined using GraphPad Prism software 5.04 for Windows, by plotting percent of inhibition against log 10 concentrations of compounds using a four-parametric sigmoidal curve with a variable slope.

Data set [2] has the same test system. Briefly: Cell viability / cytotoxicity in monocyte-derived dendritic cells (ATP, CellTiter Glo). In kind it is cell-based, human. The note with it: 24 h, unit assumed. The protocol: as §2, §3
Cell viability results are analysed in Microsoft Excel and expressed as fold change over untreated control.
Background: Cellular ATP, detected with luciferase, serves as a proxy for viable cell number.

The subject of data set [3] is IDO1 protein in SK-OV-3 cells. The data set can be described thus: Effect of compounds on IDO1 expression in SK-OV-3 cell line (Western analysis, normalised to GAPDH). In kind it is cell-based. Particulars: 24 hours exposure. The protocol:
SK-OV-3 cells are seeded in 24-well plates in McCoy's 5A medium supplemented with 10% FBS at density of 250000 cells per well and incubated overnight at 37° C., 5% CO2, 95% humidity. The following day growth medium is replaced with DMEM F-12 medium containing 6 mg/mL L-tryptophan. Compounds are added to the wells and the plate is incubated for 24 h at 37° C., 5% CO2, 95% humidity. At the end of incubation medium is removed, cells are washed and then lysed in RIPA buffer. Protein concentrations in the samples are determined using BCA method (Thermo Scientific) and adjusted to 0.5 mg/mL. Western analysis is performed on the Wes system (Protein Simple) using IDO1 (Cell Signalling; Cat #12006S) and GAPDH (Abcam, Cat #ab9485) antibodies. Expression of IDO1 is normalised to GAPDH.

T2 sequence (P48775 whole entry): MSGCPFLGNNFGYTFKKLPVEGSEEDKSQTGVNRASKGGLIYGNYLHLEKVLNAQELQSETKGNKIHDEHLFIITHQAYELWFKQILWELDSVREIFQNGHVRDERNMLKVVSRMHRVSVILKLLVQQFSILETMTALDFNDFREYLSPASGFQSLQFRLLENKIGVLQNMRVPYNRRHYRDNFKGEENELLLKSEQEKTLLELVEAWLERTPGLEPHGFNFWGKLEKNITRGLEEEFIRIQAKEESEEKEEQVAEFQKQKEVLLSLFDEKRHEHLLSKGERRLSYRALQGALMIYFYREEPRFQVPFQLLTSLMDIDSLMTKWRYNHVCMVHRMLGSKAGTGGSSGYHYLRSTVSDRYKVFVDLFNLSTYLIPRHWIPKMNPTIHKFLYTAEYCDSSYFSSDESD
T1 sequence (P14902 whole entry): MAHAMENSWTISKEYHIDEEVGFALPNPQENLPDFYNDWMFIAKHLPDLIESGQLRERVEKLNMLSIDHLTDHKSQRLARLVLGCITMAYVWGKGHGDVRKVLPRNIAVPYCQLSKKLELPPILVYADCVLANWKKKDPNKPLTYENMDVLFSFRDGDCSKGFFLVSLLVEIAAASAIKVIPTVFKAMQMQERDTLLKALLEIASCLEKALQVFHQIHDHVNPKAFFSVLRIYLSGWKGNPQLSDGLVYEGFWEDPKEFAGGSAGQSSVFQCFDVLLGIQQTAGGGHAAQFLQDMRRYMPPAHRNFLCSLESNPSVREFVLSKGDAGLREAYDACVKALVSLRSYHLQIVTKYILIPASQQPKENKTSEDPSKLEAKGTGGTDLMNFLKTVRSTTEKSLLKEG

With `Cc1ncc(CN(C(=O)Nc2ccc(Cl)cc2)C2CCCC2)o1` [Compound 144, 3-(4-chlorophenyl)-1-cyclopentyl-1-[(2-methyloxazol-5-yl)methyl]urea], the pIC50 in the data set with SK-OV-3 cells was 6.30 to 7.00; on IDO1 enzyme, less than 4.52; at TDO2 enzyme it was less than 4.52; in data set [1], 6.42. Besides, in data set [2], the Cell viability at 30 uM (% of untreated control) stood at 109%.

Turning to `C#Cc1ccc(NC(=O)N(Cc2ccc(C)o2)C2CCCC2)cc1` [Compound 102, 1-cyclopentyl-3-(4-ethynylphenyl)-1-[(5-methyl-2-furyl)methyl]urea], the pIC50 with SK-OV-3 cells is greater than 7.00; at TDO2 enzyme, less than 4.52. The “inhibition of kynurenine production by SKOV-3 (FIG. 1b)” value with SK-OV-3 cells (SKOV-3 cells, 24 hours exposure) was “dose-dependent inhibition of kynurenine production”. For the same compound, in data set [3], the “reduction in IDO1 protein in SKOV-3 cells (FIG. 1a)” value is on record as “dose-dependent reduction in IDO1 protein”.

Regarding `Cc1ccc(CN(C(=O)Nc2ccc(Cl)cc2)C2CCCC2)o1` [Compound 137, 3-(4-chlorophenyl)-1-cyclopentyl-1-[(5-methyl-2-furyl)methyl]urea], the pIC50 was greater than 7.00 in the data set on SK-OV-3 cells, less than 4.52 at IDO1 enzyme, less than 4.52 at TDO2 enzyme and 7.40 in data set [1]. Also, the Cell viability at 30 uM (% of untreated control) in data set [2] was determined as 88%.

In the case of `Cc1ccc(CN(C(=O)Nc2ccc(C#N)cc2)C2CCCC2)o1` [Compound 80, 3-(4-cyanophenyl)-1-cyclopentyl-1-[(5-methyl-2-furyl)methyl]urea], the pIC50 was greater than 7.00 in the data set with SK-OV-3 cells, less than 4.52 on IDO1 enzyme, less than 4.52 at TDO2 enzyme and 7.59 in data set [1]. In addition, the Cell viability at 30 uM (% of untreated control) in data set [2] was determined as 112%.

As to `O=C(Nc1ccc(Cl)cc1)N(Cc1cccc(C(F)(F)F)c1)C1CCC1` [Compound 90, 3-(4-chlorophenyl)-1-cyclobutyl-1-[[3-(trifluoromethyl)-phenyl]methyl]urea], the results for the negative-log IC50 (pIC50) (in the data set with SK-OV-3 cells; at TDO2 enzyme; in data set [1]) were greater than 7.00, less than 4.52 and 7.18, respectively. The Cell viability at 30 uM (% of untreated control) in data set [2] was 67%.

Take `N#Cc1cccc(CN(C(=O)Nc2ccc(Cl)cc2)C2CCCC2)c1` [Compound 147, 3-(4-chlorophenyl)-1-[(3-cyanophenyl)methyl]-1-cyclopentyl-urea]: the figures for the pIC50 (in the data set on SK-OV-3 cells; at TDO2 enzyme; in data set [1]) were greater than 7.00, less than 4.52 and 7.15, respectively. In addition, the Cell viability at 30 uM (% of untreated control) in data set [2] stood at 122%.

Regarding `Cc1ccc(CN(C(=O)Nc2ccc(Cl)cc2)C2CCC2)o1` [Compound 83, 3-(4-chlorophenyl)-1-cyclobutyl-1-[(5-methyl-2-furyl)methyl]urea], the pIC50 was greater than 7.00 with SK-OV-3 cells, less than 4.52 on IDO1 enzyme, less than 4.52 on TDO2 enzyme and 6.89 in data set [1]. The Cell viability at 30 uM (% of untreated control) in data set [2] was determined as 89%.

(Values after US20210238139A1, “MODULATORS OF TRYPTOPHAN CATABOLISM” (E-Therapeutics PLC, priority 2018, published 2021).)
